Results taken from paper PMC6943623, “Antileishmanial Compounds Isolated from Psidium Guajava L. Using a Metabolomic Approach” (Molecules, 2019).
≈ marks a conversion by molar mass, not a printed value. Like-named read-outs stand apart in the source and are kept apart here.

Experiments:
[1] = Cytotoxicity evaluation, MTT assay; type: cell-based; conditions: mouse, J774A.1 macrophage cells, mean of three independent experiments, read-out: J774A1 CC50
Protocol: After incubation for 24 h, 100 µL of medium with various concentrations of jacoumaric acid, carasolic acid, and appropriate controls (doxorubicin and amphotericin B, purchased from Sigma-Aldrich) were added and the plates were incubated for 72 h at 37 °C and 5% CO2. Each 96-well plate was then examined under a microscope to detect possible precipitate formation before the medium was aspirated from the well. 100 µL of MTT solution (0.5mg/mL in DMEM) was then added to each well. Cells were incubated for 2 h at 37 °C and 5% CO2. Then, the MTT solution was removed and DMSO (100 µL/well) was added to dissolve the resulting formazan crystals. Plates were shaken vigorously (300 rpm) for 5 min. The absorbance was measured at 570 nm with a microplate spectrophotometer (Eon Bio Tek, Winooski, VT, USA). DMSO was used as blank. […] (San Diego, CA, USA). CC50 values represent the mean value calculated from three independent experiments.

[2] = system: L. infantum axenic amastigotes; assay: Antileishmanial activity on axenic amastigotes (luciferase assay); type: cell-based, L. infantum strain MHOM/MA/67/ITMAP-263; conditions: for IC50 / IC90: Leishmania infantum; for IC50 / Axenic Amastigotes IC50: 48 h, L. infantum axenic amastigotes, 37 °C; for IC90: L. infantum amastigotes, concentration used in the ROS assay; for IC50 when associated with mannitol, compared with IC50 alone: mannitol 50 µM, axenic amastigotes
[3] = system: L. infantum promastigotes; assay: Antileishmanial activity on promastigotes (luciferase assay); type: cell-based, L. infantum strain MHOM/MA/67/ITMAP-263; conditions: Leishmania infantum, 72 h, 24 °C, mean of three independent experiments
L. infantum amastigotes = assay: Intracellular ROS generation, H2DCFDA assay; type: cell-based; conditions: axenic amastigotes treated 24 h at IC50 and IC90 concentrations
Protocol: The cells were then centrifuged, washed with PBS, resuspended in PBS, and incubated for 30 min in the dark with 10 µM H2DCFDA at 37 °C. ROS were measured as an increase in fluorescence caused by the conversion of non-fluorescent dye to highly fluorescence […] (excitation wavelength 490 nm, emission wavelength 525 nm) in a fluorescence microplate reader (SAFAS Xenius XM, Monaco, France).

Leishmania amazonensis = system: Leishmania amazonensis; parameters: method as in PMID 31269109; conditions: cited from earlier work
[4] = system: five human cancer cell lines (HCT116, CCRFCEM, DU145, Huh7, and A549); parameters: method as in PMID 28578580; conditions: read-out: IC50, antitumor activity; cited from earlier work
Pyricularia pryzae = conditions: cited from earlier work
L. infantum amastigote = system: L. infantum amastigote; parameters: method as in PMID 29201107; conditions: cited from earlier work
Leishmania [5] = system: Leishmania; parameters: method as in PMID 15070160; conditions: cited from earlier work
Leishmania [6] = system: Leishmania; parameters: method as in PMID 31571946; conditions: cited from earlier work

`C[C@@H]1[C@H](O)[C@@H](C)/C=C/C=C/C=C/C=C/C=C/C=C/C=C/[C@H](O[C@@H]2O[C@H](C)[C@@H](O)[C@H](N)[C@@H]2O)C[C@@H]2O[C@](O)(C[C@@H](O)C[C@@H](O)[C@H](O)CC[C@@H](O)C[C@@H](O)CC(=O)O[C@H]1C)C[C@H](O)[C@H]2C(=O)O` [Amphotericin B, reference compound] gave a CC50 at 72 h [1] of 5.79 ± 0.65 µg/mL (≈ 6.27 µM), an IC50 [2] of 0.09 ± 0.04 µg/mL (≈ 0.0974 µM) and an IC50 [3] of 0.09 ± 0.01 µg/mL (≈ 0.0974 µM).

In the case of `C[C@H]1[C@H](C)CC[C@]2(C(=O)O)CC[C@]3(C)C(=CC[C@@H]4[C@@]5(C)C[C@@H](O)[C@H](O)C(C)(C)[C@@H]5CC[C@]43C)[C@H]12` [Corosolic acid (1), Corosolic acid (2α-hydroxyursolic acid)], the CC50 at 72 h [1] is reported as 5.77 ± 0.5 µg/mL (≈ 12.2 µM), the “Axenic Amastigotes IC50” value [2] is reported as 1.01 ± 0.06 µg/mL and the IC50 [2] is reported as 1.06 µg/mL (≈ 2.24 µM). For the same compound, the IC90 [2] was 1.43 µg/mL (≈ 3.03 µM), the “IC50 when associated with mannitol, compared with IC50 alone” value [2] was “no significant differences” and the “Production of ROS (H2DCFDA fluorescence) compared to the control” value (L. infantum amastigotes) was “significantly decreased”. It also gave an IC50 [3] of 18.4 ± 1.2 µg/mL (≈ 39 µM).

In the case of `COc1cccc2c1C(=O)c1c(O)c3c(c(O)c1C2=O)C[C@@](O)(C(=O)CO)C[C@@H]3O[C@H]1C[C@H](N)[C@H](O)[C@H](C)O1` [Doxorubicin, reference compound], the CC50 at 72 h [1] is reported as 0.04 ± 0.004 µg/mL (≈ 0.0736 µM).

For `C=C1CC/C=C(\C)CC[C@@H]2[C@@H]1CC2(C)C` [E-caryophyllene], the “IC50, antileishmanial” value (Leishmania amazonensis) is listed as 10.7 ± 0.6 µg/mL (≈ 52.4 µM).

For `C/C1=C\CC(C)(C)/C=C/CC2(C)Oc3c(C=O)c(O)c(C=O)c(O)c3C(c3ccccc3)C2CC1` (stereo not drawn) [Guajadial B (5), Guajadial B], the IC50 [2] is listed as greater than 50 µg/mL, the IC50 [4] is listed as 150 nM and the IC50 [3] is listed as greater than 50 µg/mL.

With `CC1CCC2(C(=O)O)CCC3(C)C(=CCC4C5(C)CC(O)C(OC(=O)/C=C/c6ccc(O)cc6)C(C)(C)C5CCC43C)C2C1C` (stereo not drawn) [Jacoumaric acid (2), Jacoumaric acid] the CC50 at 72 h [1] was 12.9 ± 2.5 µg/mL (≈ 20.8 µM), the “Axenic Amastigotes IC50” value [2] was 1.32 ± 0.59 µg/mL and the IC50 [2] was 1.32 ± 0.59 µg/mL (≈ 2.13 µM). The IC90 [2] was 1.9 µg/mL (≈ 3.07 µM), the “IC50 when associated with mannitol, compared with IC50 alone” value [2] was “no significant differences” and the “Production of ROS (H2DCFDA fluorescence) compared to the control” value (L. infantum amastigotes) was “significantly decreased”. It also gave an IC50 [3] greater than 50 µg/mL.

For `CC1(C)CCC2(C(=O)O)CCC3(C)C(=CCC4C5(C)CC(O)C(O)C(C)(C(=O)O)C5CCC43C)C2C1` (stereo not drawn) [Medicagenic acid (6), Medicagenic acid], the IC50 [2] is listed as greater than 50 µg/mL, the “minimum fungicidal concentration (MFC)” value (Pyricularia pryzae) is listed as 30 µg/mL (≈ 59.7 µM) and the “minimum inhibitory concentration (MIC)” value (Pyricularia pryzae) is listed as 10 µg/mL (≈ 19.9 µM). For the same compound, the IC50 [3] was greater than 50 µg/mL.

For `CC1(C)CC[C@]2(C(=O)O)CC[C@]3(C)C(=CC[C@@H]4[C@@]5(C)C[C@@H](O)[C@H](O)C(C)(C)[C@@H]5CC[C@]43C)[C@@H]2C1` [maslinic, maslinic acid], the “IC50 on L. infantum amastigote” value (L. infantum amastigote) is given as 0.99 ± 0.09 µg/mL (≈ 2.09 µM).

In the case of `CC1(C)CC[C@]2(C(=O)O)CC[C@]3(C)C(=CC[C@@H]4[C@@]5(C)CC[C@H](O)C(C)(C)[C@@H]5CC[C@]43C)[C@@H]2C1` [oleanoic acid], the “IC50 on L. infantum amastigote” value (L. infantum amastigote) is given as 2.91 ± 0.066 µg/mL (≈ 6.37 µM).

In the case of `C[C@H]1[C@H](C)CC[C@]2(C(=O)O)CC[C@]3(C)C(=CC[C@@H]4[C@@]5(C)CC[C@H](O)C(C)(C)[C@@H]5CC[C@]43C)[C@H]12` [ursolic acid], the “IC50, antileishmanial” value (Leishmania [5]) is listed as 27 µg/mL (≈ 59.1 µM).

In the case of spergulin-A, the “IC50, antileishmanial” value (Leishmania [6]) is given as 6.22 µg/mL.
